# From patent US20060269497A1, “Trichogenous agent” (YAMAHA HATSUDOKI KABUSHIKI KAISHA, priority 2005, published 2006)
# Key:
# [1] = tested on: Human umbilical vein endothelial cells (HUVECs); assay: Measurement of 50% lethal concentration for HUVEC (alamarBlue); format: cell-based; conditions: 72 hours incubation, 250 μM = maximum concentration dissolved in DMSO
# Protocol: Human umbilical vein endothelial cells (HUVECs) (ATCC CRL-1730) were obtained from American Type Culture Collection and precultivated in an Endothelial Cell Growth Medium (CELL APPLICATIONS, USA) containing 10% bovine fetal serum supplemented with 1% Antibiotic-Antimycotic solution (GIBCO BRL, USA) under a 5% CO2 atmosphere at 37° C.
# A Matrigel matrix (BD Biosciences, USA) was melted and kept at 4° C. on ice, and then, 50 μL of the matrix were transferred to each well of a 96-well tissue culture plate. The plate was incubated at 37° C. for at least one hour to solidify the matrix solution. […]
# After the incubation, 20 μL of a 90% alamarBlue reagent were added to individual wells, and incubated for an additional 6 hours. Then, the fluorescence intensity of each well was measured at an excitation wavelength of 530 nm and an emission wavelength of 590 nm using a Spectrafluor Plus plate reader to count the number of living cells. […] The 50% lethal concentration was calculated as the concentration at which the number of living cells was 50% of the number of cells at the start of the experiment.
# [2] = tested on: hair regrowth in telogen-phase C3H/HeN Slc mice; assay: Examination of trichogenous effect (hair regrowth on shaved back of mice); format: in vivo; conditions: 10 mg/mL test solution
# Protocol: The trichogenous effect in mice of the astaxanthin monoester obtained in Preparation Example 1 was examined. The astaxanthin monoester obtained in Preparation Example 1 was dissolved in 20% (v/v) ethanol-containing a-tocopherol to prepare a 10 mg/mL astaxanthin monoester test solution. Male 7-week-old C3H/HeN Slc (SPF) mice were divided into three groups, i.e., a test group, a positive control group, and a negative control group, of 10 each. It should be noted that 45 to 95-day-old C3H mice are in the telogen phase of the hair cycle. Hairs were shaved from a site measuring 5 cm x 3 cm on the back of each mouse, and the above-described test solution was applied to that site in a dosage of 0.05 mL once a day for 18 days to observe the conditions of hair regrowth. In the positive control group, 1% (w/v) minoxidil (in 50% (v/v) ethanol), and in the negative control group, 50% (v/v) ethanol were applied. The conditions of hair regrowth were evaluated, using the following scoring criteria, expressed in terms of percentage of the surface area of the test site where the observed change occurred.
# 1: skin changed to gray (in less than 50% of area)
# 2: skin changed to gray (in 50% or more of area) and hair regrowth was observed (in less than 50% of area)
# 3: skin changed to gray (in 50% or more of area) and hair regrowth was observed (in 50% or more but less than 80% of area)
# 4: hair regrowth was observed distinctly (in 80% or more but less than 100% of area)
# 5: hair regrowth was observed distinctly (in 100% of area)
substance,measurement,setting,value
astaxanthin monoester,LC50 (50% lethal concentration),[1],≥ 250 µM
same,trichogenous effect (hair regrowth scoring) compared to negative control group,"[2]; 0.05 mL applied once a day for 18 days to shaved back of male C3H/HeN mice, vs 50% ethanol",markedly superior trichogenous effect
same,appearance (onset) of trichogenous effect compared to positive control group,"[2]; 0.05 mL once a day for 18 days, topical, mice, vs 1% (w/v) minoxidil",appeared a little later than in the positive control group
same,rate of progress of hair regrowth after the hairs begun to grow,"[2]; 0.05 mL once a day for 18 days, topical, mice, vs 1% minoxidil and negative control",higher than that in the positive control group
